The term IC50 denotes the concentration that gives 50% inhibition.

The source of these data is paper PMC6479253 (Assay and Drug Development Technologies, 2019).

Like-named read-outs stand apart in the source and are kept apart here.

One experiment has as its target T1, human Kir2.1 channels (Homo sapiens, UniProt P63252).
T1 sequence (P63252 1-427): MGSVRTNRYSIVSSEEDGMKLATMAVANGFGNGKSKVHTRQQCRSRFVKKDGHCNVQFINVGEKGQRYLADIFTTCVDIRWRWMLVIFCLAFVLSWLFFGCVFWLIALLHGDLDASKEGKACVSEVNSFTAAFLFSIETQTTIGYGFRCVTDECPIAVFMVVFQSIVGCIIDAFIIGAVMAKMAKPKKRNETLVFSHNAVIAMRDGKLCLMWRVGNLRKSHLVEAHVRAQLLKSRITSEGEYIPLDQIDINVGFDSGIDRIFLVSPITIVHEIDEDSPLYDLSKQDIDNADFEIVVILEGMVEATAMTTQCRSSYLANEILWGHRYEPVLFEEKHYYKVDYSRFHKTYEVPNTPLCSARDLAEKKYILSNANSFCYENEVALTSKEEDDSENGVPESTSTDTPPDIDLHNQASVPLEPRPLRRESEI
Nature of the experiment: cell-based. In kind it is cell-based.

For experiment [1], the system named is Kir2.1. Particulars: at −100 mV, manual patch-clamp; cited from earlier work. A general note: In patch-clamp work, channel activity is measured electrically.
Experiment [2] relates to Kir2.1. The note with it: HEK cells, at −90 mV; ref Shen et al. 43; cited from earlier work.
Experiment [3] has as its system Kir2.1. The note with it: Xenopus oocytes, at −120 mV; ref Schram et al. 23; cited from earlier work.
In a further experiment the test system is IK1 currents. The note with it: 3 μM chloroquine, at −100 mV; cited from earlier work.

Consider `COc1ccc(C2CCN(CC[C@H]3CCOc4ccccc43)CC2)cc1OC` [Terikalant, 1-[2-[(4S)-3,4-dihydro-2H-chromen-4-yl]ethyl]-4-(3,4-dimethoxyphenyl)piperidine], for which, at human Kir2.1 channels, the “Hill slope nH (95% CI)” value is 0.98 (0.88–1.1) and the IC50 was determined as 8.4 µM.
As for `COc1ccc(CNCc2cccc3ccccc23)cc1` [ML133, N-(4-methoxybenzyl)-1-(naphthalene-1-yl) methanamine], at human Kir2.1 channels, the “Hill slope nH (95% CI)” value was 2.6 (2.2–3.1) and the IC50 was 1.2 µM. In the experiment with Kir2.1 [1], the IC50 is 1.8 µM.
In the case of `[Ba+2].[Cl-].[Cl-]` [Ba^2+], the IC50 in the experiment with Kir2.1 [2] is 7.9 µM; in the experiment on Kir2.1 [3] it was 16 µM. Also, the “Hill coefficient (nH)” value on human Kir2.1 channels is on record as 1.03.
In the case of `COc1ccc(CCCOC(Cn2ccnc2)c2ccc(OC)cc2)cc1` (stereo not drawn) [SKF-96365, 1-[2-(4-methoxyphenyl)-2-[3-(4-methoxyphenyl)propoxy]ethyl]imidazole], on human Kir2.1 channels, the “Hill slope nH (95% CI)” value is reported as 1.3 (1.1–1.5) and half-maximal inhibition (IC50) required 4.7 µM.
In the case of `CN(C)CCCN1c2ccccc2Sc2ccc(Cl)cc21` [Chlorpromazine, 3-(2-chlorophenothiazin-10-yl)-N,N-dimethylpropan-1-amine], on human Kir2.1 channels, the “Hill slope nH (95% CI)” value is 1.7 (1.4–2.1) and inhibition was half-maximal at 3.8 µM (IC50).
Regarding `CCN(CC)CCCC(C)Nc1ccnc2cc(Cl)ccc12` (stereo not drawn) [Chloroquine, 4-N-(7-chloroquinolin-4-yl)-1-N,1-N-diethylpentane-1,4-diamine], at human Kir2.1 channels, the “Hill slope nH (95% CI)” value is reported as 0.80 (0.76–0.83) and the IC50 is 1.9 µM. For the same compound, in the experiment with IK1 currents, the “decrease of IK1 currents” value is given as 67%.
